Reference: patent publication US20240115555A1, “METHODS OF TREATING CANCER USING B-RAF INHIBITORS AND IMMUNE CHECKPOINT INHIBITORS” (Genentech, Inc., priority 2015, published 2024)

What was measured:
[1] = tested on: unresectable or metastatic melanoma; details: two Phase III studies; cited from earlier work
[2] = fumarate salt; cited from earlier work
CD8+ T-cells = assay: Tissue samples stained for CD8+ T-cells; assay type: in vivo, human; details: patient tissue samples, data not shown
Text: (§1) Tissue samples were stained for CD8+ T-cells as well as PD-L1 expression. Treatment with vemurafenib alone increased immune tumor CD8+ T-cell infiltration (data not shown). Treatment with either vemurafenib alone or vemurafenib in combination with atezolizumab increased expression of PD-L1 on tumor cells as well as tumor-infiltrating immune cells (data not shown).

PD-L1 = assay: Tissue samples stained for PD-L1 expression; assay type: in vivo, human; details: patient tissue samples, data not shown
Text: as §1

[3] = tested on: metastatic melanoma with the BRAFV600E mutation; details: cited from earlier work

Ipilimumab: humanized immunoglobulin (Ig)G1 monoclonal antibody that blocks cytotoxic T-lymphocyte-associated antigen 4 (CTLA-4)
median PFS [1]: 2.8 months | overall response rate [1]: 10.9%

O=C(c1ccc(F)c(F)c1Nc1ccc(I)cc1F)N1CC(O)([C@@H]2CCCCN2)C1 [Cobimetinib, (S)-(3,4-difluoro-2-(2-fluoro-4-iodophenylamino)phenyl)(3-hydroxy-3-(piperidin-2-yl)azetidin-1-yl)methanone]
solubility [2]: pH dependent solubility

CCCS(=O)(=O)Nc1ccc(F)c(C(=O)c2c[nH]c3ncc(-c4ccc(Cl)cc4)cc23)c1F [vemurafenib, propane-1-sulfonic acid {3-[5-(4-chlorophenyl)-1H-pyrrolo[2,3-b]pyridine-3-carbonyl]-2,4-difluoro-phenyl}-amide]
immune tumor CD8+ T-cell infiltration (CD8+ T-cells): increased | expression of PD-L1 on tumor cells as well as tumor-infiltrating immune cells (PD-L1): increased | improvement in PFS ([3]; compared with dacarbazine): 74% | reduction in the risk of death ([3]; compared with dacarbazine): 63% | hazard ratio for death ([3]; in favor of vemurafenib vs dacarbazine, median follow-up of 12.5 months): 0.70 (95% CI: 0.57, 0.87) | median OS ([3]; median follow-up of 12.5 months): 13.6 months | Response rates ([3]; previously untreated, BRAFV600E mutation): 48% | improvement in median OS ([3]; vs dacarbazine, median follow-up of 12.5 months): ~4 month
